We go through 32 molecules from the Kinase Knowledgebase extract (Sharma et al. 2016).

The target in this assay is PIK3CA (human) (UniProt P42336). Nature of the assay: Assessment of PIK3CA Kinase Activity.
Chain of PIK3CA (human) (P42336 whole entry, looked up): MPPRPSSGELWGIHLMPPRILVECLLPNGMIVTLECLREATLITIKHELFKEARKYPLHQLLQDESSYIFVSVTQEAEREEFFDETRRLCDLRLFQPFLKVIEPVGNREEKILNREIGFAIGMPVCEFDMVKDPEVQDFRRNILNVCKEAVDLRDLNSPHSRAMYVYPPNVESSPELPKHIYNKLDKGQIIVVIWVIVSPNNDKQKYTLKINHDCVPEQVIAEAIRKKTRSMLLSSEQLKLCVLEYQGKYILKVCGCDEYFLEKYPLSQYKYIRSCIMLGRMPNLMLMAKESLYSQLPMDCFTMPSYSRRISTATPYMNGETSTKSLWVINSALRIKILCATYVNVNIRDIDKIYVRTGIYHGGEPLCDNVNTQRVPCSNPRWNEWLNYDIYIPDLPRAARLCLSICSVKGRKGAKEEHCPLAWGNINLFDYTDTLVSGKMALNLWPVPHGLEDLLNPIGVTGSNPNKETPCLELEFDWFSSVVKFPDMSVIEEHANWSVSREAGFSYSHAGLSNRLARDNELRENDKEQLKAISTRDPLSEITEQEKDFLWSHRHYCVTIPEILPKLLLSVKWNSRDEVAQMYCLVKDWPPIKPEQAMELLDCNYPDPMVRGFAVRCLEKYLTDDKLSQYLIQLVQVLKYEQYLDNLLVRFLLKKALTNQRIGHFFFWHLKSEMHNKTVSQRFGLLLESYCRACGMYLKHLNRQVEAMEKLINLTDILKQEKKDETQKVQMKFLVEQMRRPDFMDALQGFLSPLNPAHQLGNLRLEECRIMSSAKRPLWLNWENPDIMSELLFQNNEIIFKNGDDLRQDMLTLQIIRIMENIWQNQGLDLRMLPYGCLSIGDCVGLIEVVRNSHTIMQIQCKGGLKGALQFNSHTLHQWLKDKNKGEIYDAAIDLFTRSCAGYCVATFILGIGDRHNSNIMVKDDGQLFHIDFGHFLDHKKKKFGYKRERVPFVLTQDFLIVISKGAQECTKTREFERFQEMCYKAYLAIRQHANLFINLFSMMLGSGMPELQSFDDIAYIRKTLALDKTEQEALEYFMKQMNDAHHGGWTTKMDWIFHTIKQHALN
Turning to `CNC(=O)c1ccc(-c2ccc3nc(NC(C)=O)sc3n2)cc1`, the half-inhibitory concentration (IC50) (commonly the concentration that inhibits the measured activity by half) is less than 100 nM.

`CC(=O)Nc1nc2cnc(-c3ccc(N)nc3)nc2s1`: the IC50 fell in the range of 100 to 1000 nM.

In turn, `CC(=O)Nc1nc2ccc(-c3ccc(-c4nnc[nH]4)cc3)nc2s1` returned an IC50 of less than 100 nM.

`CC(=O)Nc1ccc(-c2ccc3nc(NC(C)=O)sc3n2)cc1` displayed a half-inhibitory concentration (IC50) of 100 to 1000 nM.

`CC(=O)Nc1nc2ccc(-c3cnc(N)cn3)cc2s1` had a 50% inhibitory concentration (IC50) of less than 100 nM.

`CC(=O)Nc1nc2ccc(-c3ccc4[nH]ccc4c3)nc2s1`: the half-maximal inhibitory concentration (IC50) was in the range of 100 to 1000 nM.

As to `CC(=O)Nc1nc2ccc(-c3ccncc3)nc2s1`, the IC50 lay in the range of 100 to 1000 nM.

Molecule `CC(=O)Nc1nc2ccc(-c3cnc4[nH]ccc4c3)nc2s1` gave a half-maximal inhibitory concentration (IC50) of less than 100 nM.

`CC(=O)Nc1nc2ccc(-c3cnc(Cl)c(NS(=O)(=O)c4ccccc4)c3)nc2s1` had an IC50 of less than 100 nM.

Molecule `CC(=O)Nc1nc2ccc(-c3cnc(Cl)c(NS(C)(=O)=O)c3)cc2s1` registered an IC50 of less than 100 nM.

`CC(=O)Nc1nc2ccc(-c3ccc4[nH]ccc4c3)cc2s1`: the IC50 is 100 to 1000 nM.

`CC(=O)Nc1nc2ccc(-c3ccc4[nH]ncc4c3)nc2s1` yielded an IC50 of less than 100 nM.

Take `CC(=O)Nc1nc2ccc(-c3ccccc3N)nc2s1`: the IC50 fell in the range of 100 to 1000 nM.

`CC(=O)Nc1nc2cnc(-c3cnc(Cl)c(NS(C)(=O)=O)c3)nc2s1` had an IC50 of less than 100 nM.

The molecule `CC(=O)Nc1nc2ccc(-c3ccc(N)cc3)cc2s1` gave a 50% inhibitory concentration (IC50) of 100 to 1000 nM.

With `CC(=O)Nc1ccc(-c2ccc3nc(NC(C)=O)sc3n2)cn1`, the half-inhibitory concentration (IC50) lay within 100 to 1000 nM.

Regarding `CS(=O)(=O)Nc1cc(-c2ccc3nc(NC(=O)C4CC4)sc3n2)cnc1Cl`, the half-maximal inhibitory concentration (IC50) is less than 100 nM.

With `CNC(=O)c1ccc(-c2ccc3nc(NC(C)=O)sc3n2)cn1`, the IC50 is less than 100 nM.

`CC(=O)Nc1nc2ccc(-c3ccc4nccn4c3)nc2s1` came in with an IC50 of less than 100 nM.

In turn, `CC(=O)Nc1nc2ccc(-c3cnc(Cl)c(NS(C)(=O)=O)c3)nc2s1` showed an IC50 of less than 100 nM.

The molecule `CCS(=O)(=O)Nc1cc(-c2ccc3nc(NC(C)=O)sc3n2)cnc1Cl` returned an IC50 of less than 100 nM.

The molecule `CC(=O)Nc1nc2ccc(-c3ccc4[nH]cc(C(N)=O)c4c3)cc2s1` returned an IC50 of 100 to 1000 nM.

`CC(=O)Nc1nc2ccc(-c3ccc4[nH]cc(C=O)c4c3)cc2s1` came in with an IC50 of less than 100 nM.

Turning to `CONC(=O)c1ccc(-c2ccc3nc(NC(C)=O)sc3n2)cc1`, the IC50 was less than 100 nM.

In turn, `CC(=O)Nc1nc2cnc(-c3cnc(Cl)c(N)c3)nc2s1` yielded a concentration for half-maximal inhibition (IC50) of 100 to 1000 nM.

`CC(=O)Nc1nc2ccc(-c3ccc4c(c3)CC(=O)N4)nc2s1` displayed an IC50 of less than 100 nM.

Molecule `CNC(=O)c1cccc(-c2ccc3nc(NC(C)=O)sc3c2)c1` registered an IC50 of 100 to 1000 nM.

`CC(=O)Nc1nc2ccc(-c3cnc(Cl)c(NS(=O)(=O)C4CC4)c3)nc2s1`: the IC50 is 100 to 1000 nM.

As to `CC(=O)Nc1nc2ccc(-c3cnc4cc[nH]c4c3)nc2s1`, the IC50 was less than 100 nM.

With `CC(=O)Nc1nc2cnc(-c3cnc(N)c(C(F)(F)F)c3)nc2s1`, the IC50 was less than 100 nM.

`CONC(=O)c1cccc(-c2ccc3nc(NC(C)=O)sc3n2)c1` displayed an IC50 of less than 100 nM.

Regarding `CC(=O)Nc1nc2ccc(-c3ccc(C#N)nc3)nc2s1`, the half-inhibitory concentration (IC50) was 100 to 1000 nM.
